Source: the supplement of paper PMC10307832

Experiments:
Test in all cases: relative viability (nuclei count vs DMSO), 5 days (fraction); higher = more cells survive
Bortezomib + Olaparib = compound: CC(C)C[C@H](NC(=O)[C@H](Cc1ccccc1)NC(=O)c1cnccn1)B(O)O [Bortezomib] + O=C(c1cc(Cc2n[nH]c(=O)c3ccccc23)ccc1F)N1CCN(C(=O)C2CC2)CC1 [Olaparib] (partner 8 µM)
Method in brief: (§1)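 Lung cancer cell lines were seeded in 1536-well plates and dosed by pin tool the next day, with either a single drug or a fixed anchor-drug dose combined with five library-drug doses (not always all listed) spaced in √10 steps. Five days later, one step fixed the cells and stained their nuclei (final 0.05% Triton X-100, 1% formaldehyde, 1 ug/ml Hoechst), and nuclei were counted on 4× images. Relative viability is the nuclei count in treated wells divided by the count in vehicle wells, and each value is the median of duplicate plates.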

[1] = compound: CC1=CC(=NN1)NC2=CC(=NC(=N2)/C=C/C3=CC=CC=C3)N4CCN(CC4)C + O=C(c1cc(Cc2n[nH]c(=O)c3ccccc23)ccc1F)N1CCN(C(=O)C2CC2)CC1 [Olaparib] (partner 8 µM)
Method in brief: as §1

Bortezomib + Pictilisib = compound: CC(C)C[C@H](NC(=O)[C@H](Cc1ccccc1)NC(=O)c1cnccn1)B(O)O [Bortezomib] + CS(=O)(=O)N1CCN(Cc2cc3nc(-c4cccc5[nH]ncc45)nc(N4CCOCC4)c3s2)CC1 [Pictilisib] (partner 1 µM)
Method in brief: as §1

Obatoclax + Tozasertib = compound: COC1=CC(c2cc3ccccc3[nH]2)=N/C1=C\c1[nH]c(C)cc1C [Obatoclax] + Cc1cc(Nc2cc(N3CCN(C)CC3)nc(Sc3ccc(NC(=O)C4CC4)cc3)n2)n[nH]1 [Tozasertib] (partner 0.1 µM)
Method in brief: as §1

| Cell Line | relative viability (Bortezomib + Olaparib; first compound 0.0002 µM) | relative viability (Bortezomib + Olaparib; first compound 0.000632 µM) | relative viability (Bortezomib + Olaparib; first compound 0.002 µM) | relative viability (Bortezomib + Olaparib; first compound 0.006325 µM) | relative viability (Bortezomib + Olaparib; first compound 0.02 µM) | relative viability ([1]; first compound 0.08 µM) | relative viability ([1]; first compound 0.253 µM) | relative viability ([1]; first compound 0.8 µM) | relative viability ([1]; first compound 2.53 µM) | relative viability ([1]; first compound 8 µM) | relative viability (Bortezomib + Pictilisib; first compound 0.0002 µM) | relative viability (Bortezomib + Pictilisib; first compound 0.000632 µM) | relative viability (Bortezomib + Pictilisib; first compound 0.002 µM) | relative viability (Bortezomib + Pictilisib; first compound 0.006325 µM) | relative viability (Bortezomib + Pictilisib; first compound 0.02 µM) | relative viability (Obatoclax + Tozasertib; first compound 0.01 µM) | relative viability (Obatoclax + Tozasertib; first compound 0.03162 µM) | relative viability (Obatoclax + Tozasertib; first compound 0.1 µM) | relative viability (Obatoclax + Tozasertib; first compound 0.3162 µM) | relative viability (Obatoclax + Tozasertib; first compound 1 µM) |
| --- | --- | --- | --- | --- | --- | --- | --- | --- | --- | --- | --- | --- | --- | --- | --- | --- | --- | --- | --- | --- |
| NCI-H2023 | 0.427 | 0.473 | 0.485 | 0.0778 | 0.0633 | 0.464 | 0.586 | 0.384 | 0.0975 | 0.0526 | 0.235 | 0.215 | 0.286 | 0.162 | 0.0837 | 0.365 | 0.354 | 0.297 | 0.145 | 0.151 |
| HCC-366 | 0.358 | 0.376 | 0.455 | 0.0607 | 0.0196 | 0.332 | 0.39 | 0.24 | 0.0237 | 0.0171 | 0.119 | 0.12 | 0.117 | 0.166 | 0.0325 | 0.1 | 0.117 | 0.134 | 0.0528 | 0.0652 |
| NCI-H1355 | 0.733 | 0.725 | 0.666 | 0.118 | 0.107 | 0.707 | 0.813 | 0.69 | 0.324 | 0.113 | 0.376 | 0.396 | 0.497 | 0.202 | 0.136 | 0.602 | 0.588 | 0.623 | 0.538 | 0.466 |
| NCI-H1650 | 0.607 | 0.757 | 0.165 | 0.12 | 0.157 | 0.831 | 0.831 | 0.764 | 0.748 | 0.0952 | 0.24 | 0.488 | 0.17 | 0.153 | 0.15 | 0.417 | 0.358 | 0.425 | 0.275 | 0.266 |
| SW 1573 | 0.421 | 0.408 | 0.319 | 0.0537 | 0.0441 | 0.442 | 0.413 | 0.377 | 0.111 | 0.0633 | 0.516 | 0.496 | 0.399 | 0.0724 | 0.0556 | 0.222 | 0.208 | 0.145 | 0.143 | 0.129 |
| NCI-H661 | 0.745 | 0.69 | 0.78 | 0.376 | 0.213 | 0.658 | 0.826 | 0.752 | 0.424 | 0.275 | 0.355 | 0.328 | 0.435 | 0.335 | 0.225 | 0.365 | 0.336 | 0.393 | 0.355 | 0.357 |
| LU99A | 0.238 | 0.26 | 0.242 | 0.154 | 0.122 | 0.275 | 0.244 | 0.266 | 0.182 | 0.103 | 0.385 | – | 0.35 | 0.328 | 0.169 | 0.304 | 0.28 | 0.287 | 0.288 | 0.233 |
| LCLC-97TM1 | 0.343 | 0.431 | 0.264 | 0.0586 | 0.0773 | 0.258 | 0.565 | 0.323 | 0.214 | 0.0672 | 0.177 | 0.178 | 0.195 | 0.132 | 0.207 | 0.268 | 0.255 | 0.232 | 0.215 | 0.21 |
| LC-2-ad | 0.68 | 0.723 | 0.782 | 0.194 | 0.184 | 0.692 | 0.687 | 0.704 | 0.471 | 0.164 | 0.558 | – | 0.486 | 0.0865 | 0.104 | 0.465 | 0.422 | 0.44 | 0.387 | 0.355 |
| NCI-H1395 | 0.474 | 0.45 | 0.361 | 0.336 | 0.328 | 0.472 | 0.462 | 0.445 | 0.355 | 0.278 | 0.566 | 0.58 | 0.531 | 0.445 | 0.294 | 0.674 | 0.609 | 0.64 | 0.769 | 0.547 |
| NCI-H2228 | 0.541 | 0.615 | 0.289 | 0.0866 | 0.0966 | 0.699 | 0.727 | 0.374 | 0.316 | 0.0565 | 0.373 | 0.418 | 0.355 | 0.109 | 0.115 | 0.278 | 0.318 | 0.29 | 0.257 | 0.21 |
| HOP-62 | 0.392 | 0.448 | 0.165 | 0.0947 | 0.0397 | 0.366 | 0.521 | 0.436 | 0.395 | 0.194 | 0.752 | 0.667 | 0.748 | 0.333 | 0.0568 | 0.357 | 0.343 | 0.353 | 0.393 | 0.299 |
| NCI-H2347 | 0.413 | 0.572 | 0.338 | 0.245 | 0.249 | 0.553 | 0.665 | 0.578 | 0.565 | 0.406 | 0.803 | 0.587 | 0.564 | 0.318 | 0.0071 | 0.504 | 0.684 | – | 0.549 | 0.423 |
| NCI-H2087 | 0.634 | 0.672 | 0.286 | 0.0419 | 0.0226 | 0.538 | 0.629 | 0.553 | 0.303 | 0.0973 | 0.77 | 0.74 | 0.7 | 0.159 | 0.0891 | 0.248 | 0.239 | 0.229 | 0.206 | 0.161 |
| EPLC-272H | 0.9 | 0.746 | 0.171 | 0.0682 | 0.0612 | 0.725 | 0.901 | 0.496 | 0.12 | 0.0643 | – | – | 0.3 | 0.242 | 0.15 | 0.255 | 0.229 | 0.343 | 0.326 | 0.545 |
| LXF-289 | 1.01 | 1.03 | – | 0.0822 | 0.0818 | 1.05 | 1.04 | 0.87 | 0.411 | 0.055 | 0.829 | 0.81 | 0.717 | 0.07 | 0.0457 | 0.192 | 0.216 | 0.215 | 0.168 | 0.131 |
